Assay results published in patent US5541189A, “Substituted aliphatic amine-containing macrocyclic immunomodulators” (Abbott Laboratories, priority 1995, dated 1996).

Key:
P-glycoprotein = settings: known; increasing sensitivity of multidrug resistant (MDR) cells to chemotherapeutic agents; cited from earlier work
[1] = test system: human mixed lymphocyte reaction (MLR); test: human mixed lymphocyte reaction (MLR) assay, immunosuppressant activity; assay type: cell-based; settings: in vitro
Procedure: The immunosuppressant activity of the compounds of the present invention was determined using the human mixed lymphocyte reaction (MLR) assay described by Kino, T. et al. in Transplantation Proceedings XIX(5):36-39, Suppl. 6 (1987), incorporated herein by reference.

Row | Compound | modulators of P-glycoprotein (P-glycoprotein) | IC50 [1] [µM]
1 | C=CC[C@@H]1/C=C(\C)C[C@H](C)C[C@H](OC)[C@H]2O[C@@](O)(C(=O)C(=O)N3CCCC[C@H]3C(=O)O[C@H](/C(C)=C/[C@@H]3CC[C@@H](O)[C@H](OC)C3)[C@H](C)[C@@H](O)CC1=O)[C@H](C)C[C@@H]2OC [FK-506] | effective modulators of P-glycoprotein | –
2 | CC[C@@H]1/C=C(\C)C[C@H](C)C[C@H](OC)[C@H]2O[C@@](O)(C(=O)C(=O)N3CCCC[C@H]3C(=O)O[C@H](/C(C)=C/[C@@H]3CC[C@H](NCCN(CC)CC)[C@H](OC)C3)[C@H](C)[C@@H](O)CC1=O)[C@H](C)C[C@@H]2OC [Example 13] | – | < 1
3 | CC[C@@H]1/C=C(\C)C[C@H](C)C[C@H](OC)[C@H]2O[C@@](O)(C(=O)C(=O)N3CCCC[C@H]3C(=O)O[C@H](/C(C)=C/[C@@H]3CC[C@H](N(CC)CCN(CC)CC)[C@H](OC)C3)[C@H](C)[C@@H](O)CC1=O)[C@H](C)C[C@@H]2OC [Example 29] | – | < 1
4 | CC[C@@H]1/C=C(\C)C[C@H](C)C[C@H](OC)[C@H]2O[C@@](O)(C(=O)C(=O)N3CCCC[C@H]3C(=O)O[C@H](/C(C)=C/[C@@H]3CC[C@H](NCCCN(C)C)[C@H](OC)C3)[C@H](C)[C@@H](O)CC1=O)[C@H](C)C[C@@H]2OC [Example 7] | – | < 1
5 | CC[C@@H]1/C=C(\C)C[C@H](C)C[C@H](OC)[C@H]2O[C@@](O)(C(=O)C(=O)N3CCCC[C@H]3C(=O)O[C@H](/C(C)=C/[C@@H]3CC[C@@H](NCCCN(C)C)[C@H](OC)C3)[C@H](C)[C@@H](O)CC1=O)[C@H](C)C[C@@H]2OC [Example 47] | – | < 1
